Measurements: patent publication US8452543B2, “High throughput screening for antimicrobial dosing regimens” (priority 2005, dated 2013)
“And” between values parts separate entries of the source, which are not always exact repeats. Equal values may be shown once.

What was measured:
[1] = system: amikacin resistant A. baumannii isolates; test: Resistance confirmation, repeat susceptibility testing, amikacin; type: cell-based, Acinetobacter baumannii; settings: amikacin resistant isolates
[2] = system: P. aeruginosa ATCC 27853; test: Hollow fiber infection model, gentamicin; type: cell-based, Pseudomonas aeruginosa; settings: Cmax/MIC of 30 every 12 h
Protocol: The media plates were incubated at 35° C. for up to 24 (total population) and 72 hours (sub-populations with reduced susceptibility), then bacterial density from each sample was enumerated visually. The theoretical lower limit of detection was 400 CFU/ml.

[3] = system: P. aeruginosa ATCC 27853; test: Time-kill studies and best-fit model, gentamicin; type: cell-based, Pseudomonas aeruginosa; settings: PA 27853
Protocol: A clinical relevant concentration range of gentamicin (from 0-32 mg/l) was used. […] The data were used as inputs to derive the best-fit model parameter estimates, as previously described (24, 17). The baseline inoculum (10^7 CFU/ml) was deemed to be dense enough to constitute a heterogeneous bacterial population. […] In Table 5: PA—P. aeruginosa, AB—A. baumannii, Kg—growth rate constant for bacterial population, Nmax—maximum population size, Kk—maximal kill rate constant for bacterial population, C50k—concentration to achieve 50% of maximal kill rate for bacterial population, H—sigmoidicity constant for bacterial population, β—maximal adaptation, and τ—rate of adaptation factor.

[4] = system: gentamicin resistant P. aeruginosa isolates; settings: after serial passage on drug-free plates and storage at −70° C.
[5] = system: S. aureus ATCC 29213 and clinical isolates 55, 60, 25, 62; test: Time-kill studies and pharmacodynamic modeling, gentamicin; type: cell-based, Staphylococcus aureus
Protocol: Time-kill studies were conducted with different and escalating meropenem concentrations. […] An overnight culture of the isolate was diluted 30-fold with pre-warmed Ca-MHB and incubated further at 35 8 C until reaching late log phase growth. The bacterial suspension was diluted with Ca-MHB accordingly based on absorbance at 630 nm; 15 mL of the suspension was transferred to 50 mL sterile conical flasks each containing 1 mL of an antimicrobial agent solution at 16 the target concentration. The final concentration of the bacterial suspension in each flask was 1×10^8 cfu/mL. The high inoculum used was to simulate the bacterial load in severe infection, and to allow resistant sub-population(s) to be present at baseline. The experiment was conducted for 24 h in a shaker water bath set at 35 8 C. Serial samples in duplicate were obtained from each flask over 24 h, at 0 (baseline), 2, 4, 8, 12, and 24 h, to characterize the effect of various meropenem concentrations on the total bacterial population. Prior to culturing the bacteria quantitatively, the bacterial samples (0.5 mL) were centrifuged at 10000 g for 15 min, and reconstituted with sterile normal saline to their original volumes in order to minimize drug carry-over effect. Total bacterial populations were quantified by spiral plating 10 serial dilutions of the samples ([…]) onto MHA plates. The media plates were incubated in a humidified incubator (35 8 C) for 18-24 h, and the bacterial density from each sample was determined by CASBA-4 colony scanner/software (Spiral Biotech, Bethesda, Md., USA).
In contrast to the conventional approach in which the final observed effects are modelled, information over time was utilized to develop a dynamic model system that would capture bacterial growth/killing rates. The starting point was a mathematical model describing the time course of bacterial burden [biological response, N(t)] under the influence of various antimicrobial agent concentrations C(t). The rate of change of bacteria over time was expressed as the difference between the intrinsic bacterial growth rate and the kill rate provided by the antimicrobial agent (Eq. 35). Based on previous studies, a linear bacterial growth rate was adopted. Additional model parameters were used to account for other physiological phenomena such as contact inhibition (using a maximum population size) and non-linear (sigmoidal) kill rate to account for target site saturation. Regrowth was attributed to adaptation, which was explicitly modelled as increase in the concentration necessary to achieve 50% maximal kill rate (C50k), using a saturable function of antimicrobial agent selective pressure (both meropenem concentration and time) (Eq. 36).
Time-kill modeling was performed for S. Aureus and gentamicin as for P. aeruginosa according to procedures and dynamic growth modeling in Examples 2-3.

[6] = system: P. aeruginosa ATCC 27853; test: MIC/MBC, modified macrobroth dilution; type: cell-based, Pseudomonas aeruginosa; settings: P. aeruginosa isolate (PA 27853)
Protocol: The final concentration of bacteria in each macrobroth dilution tube was approximately 5×10^5 cfu/ml of Ca-MHB. Serial twofold dilutions of meropenem were used. […] Samples (50 μl) from clear tubes and the cloudy tube with the highest drug concentration were plated on Mueller-Hinton agar (MHA) plates (Hardy Diagnostics, Santa Maria, Calif.). […] Drug carry-over effect was assessed by visual inspection of the distribution of colonies on media plates. The studies were conducted in duplicate and repeated at least once on a separate day.

[7] = system: S. aureus ATCC 29213 and clinical isolates 55, 60, 25, 62; test: MIC/MBC of S. aureus isolates to gentamicin; type: cell-based, Staphylococcus aureus
Protocol: Minimum inhibitory concentration (MIC)/minimum bactericidal concentration (MBC) were determined in Ca-MHB using a modified macrobroth dilution method as described by the CLSI (10). The final concentration of bacteria in each macrobroth dilution tube was approximately 5×10^5 cfu/ml of Ca-MHB. […] Samples (50 μl) from clear tubes and the cloudy tube with the highest drug concentration were plated on Mueller-Hinton agar (MHA) plates (Hardy Diagnostics, Santa Maria, Calif.). […] Drug carry-over effect was assessed by visual inspection of the distribution of colonies on media plates. The studies were conducted in duplicate and repeated at least once on a separate day. […]

[8] = system: S. aureus ATCC 29213; test: Hollow-fiber infection model, gentamicin; type: cell-based, Staphylococcus aureus
Protocol: The computer simulations were compared to experimental data from an in-vitro hollow fiber infection model with similar antimicrobial agent exposures (20). Basically the drug was injected directly into the central reservoir to achieve the peak concentration desired. Fresh (drug-free) growth medium (Ca-MHB) was continuously infused from the diluent reservoir into the central reservoir to dilute the drug in order to simulate drug elimination in humans. […] Bacteria were inoculated into the extracapillary compartment of the hollow-fiber cartridge (Fibercell Systems, Inc., Frederick, Md.); they are confined in the extracapillary compartment, but are exposed to the fluctuating drug concentration in the central reservoir by means of an internal circulatory pump in the bioreactor loop. The optional absorption compartment of the system was not used.

gentamicin
cross-resistance [1]: observed
microbial response [2]: Sustained suppression of resistance emergence was achieved
C50k [3]: 0.72 mg/L
H [3]: 3.73
Kk [3]: 4.68 h⁻¹
β [3]: 42.54
τ [3]: 225 µL/min/mg
stability of resistance [4]: not stable
C50K ([5]; S. aureus strain 25): 3.18 mg/L
H ([5]; S. aureus strain 25): 1.27
β ([5]; S. aureus strain 25): 9,952
τ ([5]; S. aureus strain 25): 0.33 µL/min/mg
C50K ([5]; S. aureus strain 55): 2.58 mg/L
H ([5]; S. aureus strain 55): 1.07
β ([5]; S. aureus strain 55): 166.5
τ ([5]; S. aureus strain 55): 29.7 µL/min/mg
C50K ([5]; S. aureus strain 60): 1.05 mg/L
H ([5]; S. aureus strain 60): 1.52
β ([5]; S. aureus strain 60): 427.9
τ ([5]; S. aureus strain 60): 46.2 µL/min/mg
C50K ([5]; S. aureus strain 62): 0.65 mg/L
H ([5]; S. aureus strain 62): 1.61
β ([5]; S. aureus strain 62): 336.2
τ ([5]; S. aureus strain 62): 119 µL/min/mg
C50K ([5]; S. aureus strain ATCC 29213): 5.14 mg/L
H ([5]; S. aureus strain ATCC 29213): 0.75
β ([5]; S. aureus strain ATCC 29213): 14,620
τ ([5]; S. aureus strain ATCC 29213): 1.83 µL/min/mg
concentrations beyond which the rate of killing seemed to plateau ([5]; all five S. aureus isolates): 4 to 8 times the MIC
bactericidal activity ([5]; gentamicin concentration increased from 0.5 to 4 times the MIC): concentration dependent
MBC [6]: 2 mg/l and 2/2 mg/l
MIC [6]: 2 mg/l and 2/2 mg/l
MBC ([7]; S. aureus strain 25): 2 μ/mL
MIC ([7]; S. aureus strain 25): 1 μ/mL
MBC ([7]; S. aureus strain 55): 2 μ/mL
MIC ([7]; S. aureus strain 55): 0.5 μ/mL
MBC ([7]; S. aureus strain 60): 2 μ/mL
MIC ([7]; S. aureus strain 60): 1 μ/mL
MBC ([7]; S. aureus strain 62): 1/1 μ/mL
MIC ([7]; S. aureus strain 62): 1/1 μ/mL
MBC ([7]; S. aureus strain ATCC 29213): 2 μ/mL
MIC ([7]; S. aureus strain ATCC 29213): 1 μ/mL
microbiologic response with repeated dosing ([8]; 3-times-daily dosing regimen): sustained bacterial suppression over 5 days
killing at 24 h ([8]; both dosing regimens (once daily and 3 times daily, identical daily doses)): approximately 5 log
microbiologic response with repeated dosing ([8]; once-daily dosing regimen, over the next 4 days): regrowth was apparent
